How the values were obtained:
[1] = test system: thrombocytes; experiment: Collagen-induced aggregation of thrombocytes in human platelet-rich plasma (Born and Cross); type: cell-based; settings: 10 min, platelet-rich plasma of healthy human subjects, incubated 10 minutes at 37° C. before collagen, determined graphically, read-out: EC50 (dosage producing 50% inhibition of the thrombocyte aggregation)
Experimental: The aggregation of thrombocytes was measured according to the method of BORN and CROSS [J. Physiol. 170, 397 (1964)] in the platelet-rich plasma of healthy human test subjects. To inhibit coagulation, the blood was admixed with a 3.14% sodium citrate solution in a volumetric ration of 1:10.
The decrease in optical density was measured and recorded photometrically after the addition of the aggreation-inducing substance. From the angle of inclination of the density curve, the rate of aggregation was estimated (Vmax). The optical density was taken as the point on the curve where the most light was transmitted (O.D.).
Small doses of collagen were chosen, but sufficient to give irreversible aggregation. (Commercial collagen of Hormonchemie, Munich, Germany.)
Before the addition of collagen, the plasma was incubated with the substance for 10 minutes at 37° C.,
The dosage of the test compound which produced a 50% inhibition of the thrombocyte aggregation was determined graphically (EC50).

[2] = Acute toxicity after oral administration of a single dose; type: in vivo; settings: in vivo; mouse, oral single dose 250 mg/kg, 5 mice each, observation time 7 days; read-out: Acute toxicity per os
Experimental: (§1) The acute toxicity was determined in groups of 5 mice each after oral administration of a single dose of 250 mg/kg (observation time: 7 days). The test compound was suspended in 2% methyl cellulose, and after addition of some water, each substance was administered to the conscious animals by means of a stomach tube.

[3] = test system: mice; experiment: as above; type: in vivo; settings: mouse, oral single dose 250 mg/kg, observation time 7 days
Experimental: as §1

SMILES	EC50 [1]	LD50 at 168 h [2]	animals died [3]
CCSc1ncnc2c(N3CC[S+]([O-])CC3)nc(N3CCNCC3)nc12 [B, 8-Ethylthio-4-(1-oxido-thiomorpholino)-2-piperazino-pyrimido-[5,4-d]-pyrimidine]	< 10 nM		
c1ccc(CSc2ncnc3c(N4CCOCC4)nc(N4CCNCC4)nc23)cc1 [C, 8-Benzylthio-4-morpholino-2-piperazino-pyrimido-[5,4-d]-pyrimidine]	8.5 nM	> 250 mg/kg	0 out of 5 animals
CSc1ncnc2c(N3CC[S+]([O-])CC3)nc(N3CCNCC3)nc12 [Compound A, 8-Methylthio-4-(1-oxido-thiomorpholino)-2-piperazino-pyrimido-[5,4-d]-pyrimidine]	1 nM		
[O-][S+]1CCN(c2nc(N3CCNCC3)nc3c(SCCc4ccccc4)ncnc23)CC1 [Compound E, 4-(1-Oxido-thiomorpholino)-8-phenethylthio-2-piperazino-pyrimido-[5,4-d]-pyrimidine]	22 nM	> 250 mg/kg	0 out of 5 animals
[O-][S+]1CCN(c2nc(N3CCNCC3)nc3c(SCc4ccccc4)ncnc23)CC1 [D, 8-Benzylthio-4-(1-oxido-thiomorpholino)-2-piperazino-pyrimido-[5,4-d]-pyrimidine]	30 nM	> 250 mg/kg	0 out of 5 animals
[O-][S+]1CCN(c2nc(N3CCN(CCO)CC3)nc3c(SCc4ccccc4)ncnc23)CC1 [F, 8-Benzylthio-2-[N-(2-hydroxyethyl)-piperazino]-4-(1-oxido-thiomorpholino)-pyrimido-[5,4-d]-pyrimidine]	380 nM	> 250 mg/kg	0 out of 5 animals
CCN(CC)CCSc1ncnc2c(N3CC[S+]([O-])CC3)nc(N3CCNCC3)nc12 [G, 8-(2-Diethylaminoethyl-thio)-4-(1-oxido-thiomorpholino)-2-piperazino-pyrimido-[5,4-d]-pyrimidine]	20 nM	> 250 mg/kg	0 out of 5 animals
O=C(c1ccco1)N1CCN(c2nc(N3CCOCC3)c3ncnc(SCc4ccccc4)c3n2)CC1 [H, 8-Benzylthio-2-[N-(2-furoyl)-piperazino]-4-morpholino-pyrimido-[5,4-d]-pyrimidine]	100 nM	> 250 mg/kg	0 out of 5 animals
COc1ccc(CSc2ncnc3c(N4CCOCC4)nc(N4CCNCC4)nc23)cc1OC [I, 8-(3,4-dimethoxybenzyl-thio)-4-morpholino-2-piperazino-pyrimido-[5,4-d]-pyrimidine]	10 nM		
CN1CCN(c2nc(N3CC[S+]([O-])CC3)c3ncnc(SCc4ccccc4)c3n2)CC1 [K, 8-Benzylthio-2-(N-methyl-piperazino)-4-(1-oxido-thio-morpholino)-pyrimido-[5,4-d]-pyrimidine]	350 nM	> 250 mg/kg	0 out of 5 animals
Clc1ccc(CSc2ncnc3c(N4CCOCC4)nc(N4CCNCC4)nc23)c(Cl)c1 [L, 8-(2,4-Dichlorobenzyl-thio)-4-morpholino-2-piperazino-pyrimido-[5,4-d]-pyrimidine]	8 nM	> 250 mg/kg	0 out of 5 animals
O=CN1CCN(c2nc(N3CC[S+]([O-])CC3)c3ncnc(SCc4ccccc4)c3n2)CC1 [M, 8-Benzylthio-2-(N-formyl-piperazino)-4-(1-oxido-thiomorpholino)-pyrimido-[5,4-d]-pyrimidine]	15 nM	> 250 mg/kg	0 out of 5 animals
OCCOc1ncnc2c(N3CCOCC3)nc(N3CCNCC3)nc12 [N, 8-(2-Hydroxyethoxy)-4-morpholino-2-piperazino-pyrimido-[5,4-d]-pyrimidine]	40 nM		
[O-][S+]1CCN(c2nc(N3CCNCC3)nc3c(SCCO)ncnc23)CC1 [O, 8-(2-Hydroxyethyl-thio)-4-(1-oxido-thiomorpholino)-2-piperazino-pyrimido-[5,4-d]-pyrimidine]	28 nM	> 250 mg/kg	0 out of 5 animals
c1ccc(Sc2ncnc3c(N4CCSCC4)nc(N4CCNCC4)nc23)cc1 [P, 8-Phenylthio-2-piperazino-4-thiomorpholino-pyrimido-[5,4-d]-pyrimidine]	~100 nM		
[O-][S+]1CCN(c2nc(N3CCNCC3)nc3c(OCc4ccccc4)ncnc23)CC1 [Q, 8-Benzyloxy-4-(1-oxido-thiomorpholino)-2-piperazino-pyrimido-[5,4-d]-pyrimidine]	3.6 nM	> 250 mg/kg	0 out of 5 animals
[O-][S+]1CCN(c2nc(N3CCNCC3)nc3c(NCc4ccccc4)ncnc23)CC1 [R, 8-Benzylamino-4-(1-oxido-thiomorpholino)-2-piperazino-pyrimido-[5,4-d]-pyrimidine]	4.2 nM	> 250 mg/kg	0 out of 5 animals
CN(Cc1ccccc1)c1ncnc2c(N3CC[S+]([O-])CC3)nc(N3CCNCC3)nc12 [S, 8-(N-Benzyl-methylamino)-4-(1-oxido-thiomorpholino)-2-piperazino-pyrimido-[5,4-d]-pyrimidine]	3 nM	> 250 mg/kg	0 out of 5 animals
c1ccc(CNc2ncnc3c(N4CCSCC4)nc(N4CCNCC4)nc23)cc1 [T, 8-Benzylamino-2-piperazino-4-thiomorpholino-pyrimido-[5,4-d]-pyrimidine]	250 nM	> 250 mg/kg	0 out of 5 animals
CN(Cc1ccccc1)c1ncnc2c(N3CC[S+]([O-])CC3)nc(N3CCN(C=O)CC3)nc12 [U, 8-(N-Benzyl-methylamino)-2-(N-formyl-piperazino)-4-(1-oxido-thiomorpholino)-pyrimido-[5,4-d]-pyrimidine]	290 nM	> 250 mg/kg	1 out of 5 animals
[O-][S+]1CCN(c2nc(N3CCNCC3)nc3c(Nc4ccccc4)ncnc23)CC1 [V, 8-Anilino-4-(1-oxido-thiomorpholino)-2-piperazino-pyrimido-[5,4-d]-pyrimidine]	30 nM	> 250 mg/kg	1 out of 5 animals

— patent US4690923A, “2-(Perhydro-1,4-diazino)-pyrimido(5,4-D)-pyrimidines, pharmaceutical compositions and use” (Karl Thomae GmbH, priority 1979, dated 1987)
